Three molecules from patent publication US20220009920A1 (GB005, Inc., priority 2020, published 2022) can be followed below.

Holding throughout (assay): Large panel kinase profiling
What all share (type): biochemical
Details in all cases: 1 μM test article, 1 mM ATP

Experiment [1] has as its target T1, STK33 (Homo sapiens, UniProt Q9BYT3).
T1 construct: AssayQuant Technologies, Inc. (contract assay)
In outline: (§1)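 At 30° C., kinases turned over a CSox-Sensor peptide substrate with 1 mM ATP while 1 μM test article was present. Progress was followed by kinetic fluorescence readings.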

The target of experiment [2] is PLK1 (Homo sapiens, UniProt P53350). The procedure, abridged:
as §1

The target in experiment [3] is T2, DAPK1 (Homo sapiens, UniProt P53355).
T2 construct: AssayQuant Technologies, Inc. (service laboratory)
The procedure, abridged:
as §1

Experiment [4] has as its target ABL1 (Homo sapiens, UniProt P00519). The procedure, abridged:
as §1

Experiment [5] addresses T3, MYO3B (Homo sapiens, UniProt Q8WXR4).
T3 construct: AssayQuant Technologies, Inc. (assay service)
T3 sequence (Q8WXR4 1-1341): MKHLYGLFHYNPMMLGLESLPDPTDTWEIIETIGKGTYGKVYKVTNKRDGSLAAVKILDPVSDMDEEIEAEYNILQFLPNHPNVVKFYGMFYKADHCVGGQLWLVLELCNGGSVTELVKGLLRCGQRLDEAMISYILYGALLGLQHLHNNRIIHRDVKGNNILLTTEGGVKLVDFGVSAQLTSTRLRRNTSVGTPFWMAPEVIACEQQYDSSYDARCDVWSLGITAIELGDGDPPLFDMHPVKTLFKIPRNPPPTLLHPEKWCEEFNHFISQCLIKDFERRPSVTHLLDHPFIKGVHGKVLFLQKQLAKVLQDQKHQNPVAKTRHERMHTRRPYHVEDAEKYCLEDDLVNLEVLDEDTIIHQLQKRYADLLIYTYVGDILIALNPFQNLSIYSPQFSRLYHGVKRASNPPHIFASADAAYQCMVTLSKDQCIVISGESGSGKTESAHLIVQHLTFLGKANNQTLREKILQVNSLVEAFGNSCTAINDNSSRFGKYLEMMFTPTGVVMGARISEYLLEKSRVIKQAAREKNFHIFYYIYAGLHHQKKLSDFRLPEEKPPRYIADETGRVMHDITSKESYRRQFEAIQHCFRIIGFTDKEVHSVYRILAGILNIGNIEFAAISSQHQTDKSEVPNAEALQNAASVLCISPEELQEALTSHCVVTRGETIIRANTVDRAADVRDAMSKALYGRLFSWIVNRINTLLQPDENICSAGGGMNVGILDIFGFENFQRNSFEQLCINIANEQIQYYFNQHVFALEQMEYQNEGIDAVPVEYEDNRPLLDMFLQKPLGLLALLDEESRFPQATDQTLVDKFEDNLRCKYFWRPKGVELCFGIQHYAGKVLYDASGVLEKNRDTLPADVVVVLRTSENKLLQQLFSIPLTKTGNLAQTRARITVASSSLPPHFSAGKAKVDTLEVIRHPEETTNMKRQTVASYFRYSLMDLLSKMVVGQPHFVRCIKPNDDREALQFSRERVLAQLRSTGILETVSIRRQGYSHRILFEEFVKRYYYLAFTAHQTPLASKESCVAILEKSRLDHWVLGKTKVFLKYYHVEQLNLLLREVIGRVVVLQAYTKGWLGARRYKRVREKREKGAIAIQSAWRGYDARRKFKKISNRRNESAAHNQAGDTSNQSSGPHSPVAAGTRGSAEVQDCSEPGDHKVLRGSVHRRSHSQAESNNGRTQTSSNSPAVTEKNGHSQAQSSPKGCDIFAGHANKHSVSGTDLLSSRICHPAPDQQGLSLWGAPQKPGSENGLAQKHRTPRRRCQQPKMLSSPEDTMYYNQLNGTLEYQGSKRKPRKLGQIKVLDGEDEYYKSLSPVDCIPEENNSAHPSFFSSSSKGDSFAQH
In outline:
as §1

In experiment [6] the target is ROCK1 (Homo sapiens, UniProt Q13464). The procedure, abridged: as §1
The target in experiment [7] is T4, EGFR (Homo sapiens, UniProt P00533).
T4 construct: AssayQuant Technologies, Inc. (service laboratory)
In outline:
as §1

Experiment [8] deals with ERN1 (Homo sapiens, UniProt O75460). The procedure, abridged: as §1
Experiment [9] has as its target AURKB/AURB (Homo sapiens, UniProt Q96GD4). The procedure, abridged: as §1
For experiment [10], the target named is PKN2 (Homo sapiens, UniProt Q16513). In outline:
as §1

Experiment [11] deals with T5, JAK3(JH1) (Homo sapiens, UniProt P52333).
T5 construct: JAK3(JH1)
The procedure, abridged: as §1

Chain of PLK1 (P53350 whole entry, species assumed): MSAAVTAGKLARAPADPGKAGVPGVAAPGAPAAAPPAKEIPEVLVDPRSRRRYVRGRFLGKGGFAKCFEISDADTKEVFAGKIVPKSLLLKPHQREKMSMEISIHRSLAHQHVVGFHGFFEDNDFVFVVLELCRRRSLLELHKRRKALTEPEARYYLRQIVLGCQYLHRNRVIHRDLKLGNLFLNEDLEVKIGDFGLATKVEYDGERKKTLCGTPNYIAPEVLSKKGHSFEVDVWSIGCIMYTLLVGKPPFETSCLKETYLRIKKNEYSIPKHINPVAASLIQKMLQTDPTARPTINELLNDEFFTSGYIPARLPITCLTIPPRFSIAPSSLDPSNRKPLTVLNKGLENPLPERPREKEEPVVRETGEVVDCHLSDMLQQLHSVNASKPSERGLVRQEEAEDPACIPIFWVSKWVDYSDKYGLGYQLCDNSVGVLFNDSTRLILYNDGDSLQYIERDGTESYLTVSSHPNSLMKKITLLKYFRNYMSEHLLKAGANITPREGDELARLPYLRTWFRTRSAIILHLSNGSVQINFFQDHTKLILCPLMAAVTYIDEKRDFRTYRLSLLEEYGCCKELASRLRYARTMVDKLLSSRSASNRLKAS
Chain of ERN1 (O75460 19-977, species assumed): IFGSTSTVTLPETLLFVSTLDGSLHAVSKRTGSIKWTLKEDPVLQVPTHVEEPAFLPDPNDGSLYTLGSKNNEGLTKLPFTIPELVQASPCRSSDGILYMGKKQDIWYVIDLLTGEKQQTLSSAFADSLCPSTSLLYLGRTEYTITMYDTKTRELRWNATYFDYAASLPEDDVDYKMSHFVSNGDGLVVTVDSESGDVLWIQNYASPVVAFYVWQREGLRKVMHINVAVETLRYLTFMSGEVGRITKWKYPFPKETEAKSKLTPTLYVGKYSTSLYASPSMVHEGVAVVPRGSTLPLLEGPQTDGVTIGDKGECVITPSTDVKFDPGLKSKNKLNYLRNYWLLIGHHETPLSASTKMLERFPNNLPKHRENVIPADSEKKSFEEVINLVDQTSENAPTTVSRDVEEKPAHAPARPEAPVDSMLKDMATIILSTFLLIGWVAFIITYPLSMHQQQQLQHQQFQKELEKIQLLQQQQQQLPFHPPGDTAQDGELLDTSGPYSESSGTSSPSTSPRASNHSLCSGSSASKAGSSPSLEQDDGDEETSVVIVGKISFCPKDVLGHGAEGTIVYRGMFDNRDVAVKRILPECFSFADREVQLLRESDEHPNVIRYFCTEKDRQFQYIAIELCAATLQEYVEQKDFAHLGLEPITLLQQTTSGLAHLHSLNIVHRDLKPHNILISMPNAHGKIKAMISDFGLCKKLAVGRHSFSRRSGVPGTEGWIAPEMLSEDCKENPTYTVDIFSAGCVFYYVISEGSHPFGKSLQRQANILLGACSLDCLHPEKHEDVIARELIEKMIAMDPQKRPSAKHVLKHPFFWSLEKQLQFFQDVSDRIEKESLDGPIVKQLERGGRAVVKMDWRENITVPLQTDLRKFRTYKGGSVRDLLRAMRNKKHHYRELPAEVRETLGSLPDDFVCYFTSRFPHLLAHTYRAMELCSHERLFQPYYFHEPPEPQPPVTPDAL
T2 sequence (P53355 whole entry, species assumed): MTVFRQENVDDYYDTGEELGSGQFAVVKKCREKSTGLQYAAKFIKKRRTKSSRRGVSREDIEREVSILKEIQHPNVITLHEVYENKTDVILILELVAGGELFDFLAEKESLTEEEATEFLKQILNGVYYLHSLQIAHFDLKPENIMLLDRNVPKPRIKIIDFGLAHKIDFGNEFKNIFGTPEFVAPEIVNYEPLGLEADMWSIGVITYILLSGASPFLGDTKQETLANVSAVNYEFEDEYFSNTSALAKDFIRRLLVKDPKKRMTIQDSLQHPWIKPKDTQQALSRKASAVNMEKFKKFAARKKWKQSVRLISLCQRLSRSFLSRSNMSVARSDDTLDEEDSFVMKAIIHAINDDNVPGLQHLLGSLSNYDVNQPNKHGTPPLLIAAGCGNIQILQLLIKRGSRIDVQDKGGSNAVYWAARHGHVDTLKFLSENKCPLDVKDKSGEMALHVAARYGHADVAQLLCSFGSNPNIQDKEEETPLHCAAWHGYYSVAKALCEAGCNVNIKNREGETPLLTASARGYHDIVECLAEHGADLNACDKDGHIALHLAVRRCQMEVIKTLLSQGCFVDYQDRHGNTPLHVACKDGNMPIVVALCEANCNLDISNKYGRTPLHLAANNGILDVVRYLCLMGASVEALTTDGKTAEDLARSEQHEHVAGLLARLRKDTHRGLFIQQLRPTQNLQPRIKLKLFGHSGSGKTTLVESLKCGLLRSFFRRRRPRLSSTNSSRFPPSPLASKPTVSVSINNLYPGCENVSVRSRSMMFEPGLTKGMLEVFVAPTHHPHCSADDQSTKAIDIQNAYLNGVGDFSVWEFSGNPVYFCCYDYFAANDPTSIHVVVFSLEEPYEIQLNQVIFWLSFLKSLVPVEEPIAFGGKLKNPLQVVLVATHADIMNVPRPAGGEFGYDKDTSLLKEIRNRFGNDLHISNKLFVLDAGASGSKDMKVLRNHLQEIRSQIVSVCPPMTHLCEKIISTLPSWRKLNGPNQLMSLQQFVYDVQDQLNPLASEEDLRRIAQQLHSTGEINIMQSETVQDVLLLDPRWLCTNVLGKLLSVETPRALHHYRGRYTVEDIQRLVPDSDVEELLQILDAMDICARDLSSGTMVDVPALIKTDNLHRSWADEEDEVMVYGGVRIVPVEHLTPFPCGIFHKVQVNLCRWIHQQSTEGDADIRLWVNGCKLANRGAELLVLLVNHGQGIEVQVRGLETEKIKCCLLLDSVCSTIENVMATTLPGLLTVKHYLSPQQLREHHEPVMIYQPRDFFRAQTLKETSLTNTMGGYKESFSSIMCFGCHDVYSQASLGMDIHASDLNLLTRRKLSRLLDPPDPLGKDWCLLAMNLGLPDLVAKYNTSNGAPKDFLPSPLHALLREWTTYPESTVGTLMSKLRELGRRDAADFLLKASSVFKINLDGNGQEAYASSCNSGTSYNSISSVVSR
T4 sequence (P00533 25-1210, species assumed): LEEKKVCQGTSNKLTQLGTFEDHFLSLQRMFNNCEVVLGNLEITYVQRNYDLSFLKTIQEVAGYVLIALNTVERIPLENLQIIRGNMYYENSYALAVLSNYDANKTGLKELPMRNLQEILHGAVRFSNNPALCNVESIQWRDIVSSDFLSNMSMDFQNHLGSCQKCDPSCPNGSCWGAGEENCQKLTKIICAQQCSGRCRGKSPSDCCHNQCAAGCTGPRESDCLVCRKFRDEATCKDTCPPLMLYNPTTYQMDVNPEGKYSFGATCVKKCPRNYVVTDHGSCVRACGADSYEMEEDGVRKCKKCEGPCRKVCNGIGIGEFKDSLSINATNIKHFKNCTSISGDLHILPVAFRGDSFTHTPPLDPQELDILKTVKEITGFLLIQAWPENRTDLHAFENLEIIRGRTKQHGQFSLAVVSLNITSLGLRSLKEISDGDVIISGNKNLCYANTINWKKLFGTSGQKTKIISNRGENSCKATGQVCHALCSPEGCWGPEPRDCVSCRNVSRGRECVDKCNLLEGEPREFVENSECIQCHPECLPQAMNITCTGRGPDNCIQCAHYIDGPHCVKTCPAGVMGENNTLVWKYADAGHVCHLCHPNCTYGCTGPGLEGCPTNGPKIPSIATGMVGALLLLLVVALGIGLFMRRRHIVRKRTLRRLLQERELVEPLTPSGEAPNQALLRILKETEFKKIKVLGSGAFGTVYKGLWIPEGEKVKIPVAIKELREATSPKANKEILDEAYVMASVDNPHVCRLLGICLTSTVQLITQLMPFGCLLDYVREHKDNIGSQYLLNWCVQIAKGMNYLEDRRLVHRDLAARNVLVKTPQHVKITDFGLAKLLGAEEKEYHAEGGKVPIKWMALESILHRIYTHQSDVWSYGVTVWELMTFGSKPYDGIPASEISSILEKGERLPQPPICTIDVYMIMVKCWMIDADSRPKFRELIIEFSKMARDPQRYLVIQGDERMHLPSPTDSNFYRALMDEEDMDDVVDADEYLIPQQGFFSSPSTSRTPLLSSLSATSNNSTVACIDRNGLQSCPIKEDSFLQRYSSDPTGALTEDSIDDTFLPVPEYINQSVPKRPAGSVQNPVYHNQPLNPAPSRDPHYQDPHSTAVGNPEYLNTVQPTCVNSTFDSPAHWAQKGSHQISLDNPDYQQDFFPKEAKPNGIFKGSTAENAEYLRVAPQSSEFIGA
Chain of AURKB/AURB (Q96GD4 whole entry): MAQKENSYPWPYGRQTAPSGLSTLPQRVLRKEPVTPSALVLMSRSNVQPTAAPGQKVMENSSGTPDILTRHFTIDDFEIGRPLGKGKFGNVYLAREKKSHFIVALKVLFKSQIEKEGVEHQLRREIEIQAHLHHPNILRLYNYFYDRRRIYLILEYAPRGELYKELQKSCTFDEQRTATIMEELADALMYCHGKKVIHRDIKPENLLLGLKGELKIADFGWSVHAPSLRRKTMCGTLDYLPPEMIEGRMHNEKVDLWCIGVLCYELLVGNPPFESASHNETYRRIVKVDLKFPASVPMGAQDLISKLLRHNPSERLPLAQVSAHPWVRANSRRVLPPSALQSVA
T1 sequence (Q9BYT3 whole entry, species assumed): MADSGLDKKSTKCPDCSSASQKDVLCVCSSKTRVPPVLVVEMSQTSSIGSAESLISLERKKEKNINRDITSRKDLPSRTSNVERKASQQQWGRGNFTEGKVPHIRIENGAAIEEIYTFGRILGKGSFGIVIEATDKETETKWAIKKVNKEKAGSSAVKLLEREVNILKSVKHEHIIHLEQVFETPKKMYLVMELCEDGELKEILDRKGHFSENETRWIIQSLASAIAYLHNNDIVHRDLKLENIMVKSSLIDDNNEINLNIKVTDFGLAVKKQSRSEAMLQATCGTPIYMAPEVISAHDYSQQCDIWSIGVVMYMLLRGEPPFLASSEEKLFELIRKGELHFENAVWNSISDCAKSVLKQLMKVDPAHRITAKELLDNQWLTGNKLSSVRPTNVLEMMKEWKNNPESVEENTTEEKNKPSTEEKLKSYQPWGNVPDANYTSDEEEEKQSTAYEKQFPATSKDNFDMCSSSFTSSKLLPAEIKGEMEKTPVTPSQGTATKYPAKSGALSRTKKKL

Turning to `C=CC(=O)N1CCCC(c2c(F)cc(C(N)=O)c3[nH]c4c(c23)CCCCC4)C1` (single isomer, unassigned) [Compound 5-6], the inhibition at 1 µM in experiment [1] is -7.9%; in experiment [2], -6.3%; in experiment [3], 8.1%; in experiment [4] it was -14.6%; in experiment [5], -36.2%; in experiment [6], 3.5%. Also, the inhibition at 1 µM is -7.8% in [7]; -5.4% in [8]; -19% in [9]; 0.7% in experiment [10]; 2% in experiment [11].
For the molecule `C=CC(=O)N1CCC[C@@H](c2c(F)cc(C(N)=O)c3[nH]c4c(c23)CC2(CC4)CC2)C1` [Compound 6-2, (S)-5-(1-acryloylpiperidin-3-yl)-6-fluoro-1,2,4,9-tetrahydrospiro[carbazole-3,1′-cyclopropane]-8-carboxamide], the inhibition at 1 µM in [1] was -27.1%; in experiment [2] it was -4.3%; in [3] it was 22.1%; in experiment [4], 2.5%; in [5], -16.5%; in [6] it was 2.5%. Besides, the inhibition at 1 µM in experiment [7] was -7.7%; in experiment [8], 3.1%; in experiment [9] it was -11.5%; in experiment [10], 16.2%; in [11], 12.5%.
Regarding `C=CC(=O)N1CCC[C@@H](c2c(F)cc(C(N)=O)c3[nH]c4c(c23)CCC4)C1` [Compound 10-2, (S)-8-(1-acryloylpiperidin-3-yl)-7-fluoro-1,2,3,4-tetrahydrocyclo-penta[b]indole-5-carboxamide], the inhibition at 1 µM was 20.5% in experiment [1]; 13.8% in experiment [2]; -20.3% in [3]; 3.1% in experiment [4]; -11% in experiment [5]; 13.7% in [6]. In addition, the inhibition at 1 µM in experiment [7] is 1.6%; in experiment [8], -2.9%; in experiment [9], -14.9%; in [10], 7.5%; in experiment [11] it was 2.4%.
